Earlier results, collected in patent US7393954B2 (Reliable Biopharmaceutical Corporation, priority 2002, dated 2008).

Key:
[1] = tested on: chronic lymphocytic leukemia; settings: result in words
hairy cell leukemia = settings: result in words

## OC[C@H]1O[C@@H](n2cnc3c2N=CNC[C@H]3O)C[C@@H]1O [Pentostatin]
[1]
  efficacy against chronic lymphocytic leukemia: effective
Hairy cell leukemia; interferon-refractory, approved agent
  efficacy in treatment of interferon-refractory hairy cell leukemia: highly effective
Hairy cell leukemia
  efficacy against hairy cell leukemia: effective
